{
  "source": "ChEMBL document CHEMBL6092216",
  "about": "“Development of α-Helical Antimicrobial Peptides with Imperfect Amphipathicity for Superior Activity and Selectivity” (J Med Chem, 2024)",
  "key": {"HEK-293T": {"system": "HEK-293T", "experiment": "Cytotoxicity against HEK293T cells assessed as effect on cell viability at 3.13 to 400 ug/ml incubated for 24 hrs by CCK-8 assay", "type": "toxicity, cell-based", "details": "human, dose 3.13-400 µg/ml"}, "HaCaT": {"system": "HaCaT", "experiment": "Cytotoxicity against human HaCaT cells assessed as effect on cell viability at 3.13 to 400 ug/ml incubated for 24 hrs by CCK-8 assay", "type": "toxicity, cell-based", "details": "dose 3.13-400 µg/ml"}, "Acinetobacter baumannii [1]": {"system": "Acinetobacter baumannii", "experiment": "Antibacterial activity against Acinetobacter baumannii 0357 assessed as inhibition of bacterial growth incubated for 24 hrs by tube microdilution assay", "type": "functional"}, "Acinetobacter baumannii [2]": {"system": "Acinetobacter baumannii", "experiment": "Antibacterial activity against Acinetobacter baumannii 19110 assessed as inhibition of bacterial growth incubated for 24 hrs by tube microdilution assay", "type": "functional"}, "Escherichia coli [3]": {"system": "Escherichia coli", "experiment": "Antibacterial activity against Escherichia coli 0894 assessed as inhibition of bacterial growth incubated for 24 hrs by tube microdilution assay", "type": "functional"}, "Escherichia coli [4]": {"system": "Escherichia coli", "experiment": "Antibacterial activity against Escherichia coli 5017 assessed as inhibition of bacterial growth incubated for 24 hrs by tube microdilution assay", "type": "functional"}, "Pseudomonas aeruginosa [5]": {"system": "Pseudomonas aeruginosa", "experiment": "Antibacterial activity against Pseudomonas aeruginosa 17068 assessed as inhibition of bacterial growth incubated for 24 hrs by tube microdilution assay", "type": "functional"}, "Staphylococcus aureus [6]": {"system": "Staphylococcus aureus", "experiment": "Antibacterial activity against Staphylococcus aureus 15772 assessed as inhibition of bacterial growth incubated for 24 hrs by tube microdilution assay", "type": "functional"}, "Staphylococcus aureus [7]": {"system": "Staphylococcus aureus", "experiment": "Antibacterial activity against Staphylococcus aureus 15192 assessed as inhibition of bacterial growth incubated for 24 hrs by tube microdilution assay", "type": "functional"}, "Staphylococcus aureus [8]": {"system": "Staphylococcus aureus", "experiment": "Antibacterial activity against Staphylococcus aureus 220823 assessed as inhibition of bacterial growth incubated for 24 hrs by tube microdilution assay", "type": "functional"}, "Staphylococcus aureus [9]": {"system": "Staphylococcus aureus", "experiment": "Antibacterial activity against methicillin-resistant Staphylococcus aureus 11 assessed as inhibition of bacterial growth incubated for 24 hrs by tube microdilution assay", "type": "functional"}, "Staphylococcus aureus [10]": {"system": "Staphylococcus aureus", "experiment": "Antibacterial activity against methicillin-resistant Staphylococcus aureus 12 assessed as inhibition of bacterial growth incubated for 24 hrs by tube microdilution assay", "type": "functional"}, "Staphylococcus aureus [11]": {"system": "Staphylococcus aureus", "experiment": "Antibacterial activity against methicillin-resistant Staphylococcus aureus 41 assessed as inhibition of bacterial growth incubated for 24 hrs by tube microdilution assay", "type": "functional"}, "Staphylococcus aureus [12]": {"system": "Staphylococcus aureus", "experiment": "Antibacterial activity against methicillin-resistant Staphylococcus aureus 52 assessed as inhibition of bacterial growth incubated for 24 hrs by tube microdilution assay", "type": "functional"}, "Pseudomonas aeruginosa [13]": {"system": "Pseudomonas aeruginosa", "experiment": "Antibiofilm activity against Pseudomonas aeruginosa ATCC 27853 assessed as inhibition of biofilm formation at 1X to 10XMIC incubated for 24 hrs by crystal violet staining based analysis", "type": "functional, organism-based"}, "Pseudomonas aeruginosa [14]": {"system": "Pseudomonas aeruginosa", "experiment": "Antibiofilm activity against preformed Pseudomonas aeruginosa ATCC 27853 biofilms assessed as biofilm eradication at 1X to 10XMIC incubated for 24 hrs by crystal violet staining based analysis", "type": "functional, organism-based"}, "Pseudomonas aeruginosa [15]": {"system": "Pseudomonas aeruginosa", "experiment": "Ratio of MIC for antibacterial activity against Pseudomonas aeruginosa ATCC 27853 measured following incubation of drug with mouse plasma for 8 hrs to MIC for antibacterial activity against Pseudomonas aeruginosa ATCC 27853", "type": "functional"}, "Staphylococcus aureus [16]": {"system": "Staphylococcus aureus", "experiment": "Ratio of MIC for antibacterial activity against Staphylococcus aureus ATCC 6538 measured following incubation of drug with mouse plasma for 8 hrs to MIC for antibacterial activity against Staphylococcus aureus ATCC 6538", "type": "functional"}, "[17]": {"experiment": "Toxicity against C57BL/6J mouse assessed as behavioural changes at 10 to 20 mg/kg, iv measured for 48 hrs post-injection", "type": "organism-based", "details": "in vivo, dose 10-20 mg/kg"}, "Acinetobacter baumannii [18]": {"system": "Acinetobacter baumannii", "experiment": "Antibacterial activity against Acinetobacter baumannii ATCC 19606 infected in BALB/c mouse assessed as inhibition of bacterial colonization on wounded skin at 0.1 to 2 mg/ml applied on skin and measured after 2 hrs", "type": "functional, organism-based", "details": "dose 0.1-2 mg/ml"}},
  "note": "The source made the active and inactive calls. No cut-off for these calls is given here.",
  "data": [
    {"substance": "H-RRGIKKFIKKVKKVKKAI-OH", "values": [
      {"measurement": "Activity", "setting": "HEK-293T", "result": "Non-toxic"},
      {"measurement": "Activity", "setting": "HaCaT", "result": "Non-toxic"},
      {"measurement": "MIC", "setting": "Acinetobacter baumannii [1]", "result": 2.34, "unit": "µg/mL"},
      {"measurement": "MIC", "setting": "Acinetobacter baumannii [2]", "result": 2.34, "unit": "µg/mL"},
      {"measurement": "MIC", "setting": "Escherichia coli [3]", "result": 9.37, "unit": "µg/mL"},
      {"measurement": "MIC", "setting": "Escherichia coli [4]", "result": 9.37, "unit": "µg/mL"},
      {"measurement": "MIC", "setting": "Pseudomonas aeruginosa [5]", "result": 1.17, "unit": "µg/mL"},
      {"measurement": "MIC", "setting": "Staphylococcus aureus [6]", "result": 2.34, "unit": "µg/mL"},
      {"measurement": "MIC", "setting": "Staphylococcus aureus [7]", "result": 2.34, "unit": "µg/mL"},
      {"measurement": "MIC", "setting": "Staphylococcus aureus [8]", "result": 2.34, "unit": "µg/mL"},
      {"measurement": "MIC", "setting": "Staphylococcus aureus [9]", "result": 2.34, "unit": "µg/mL"},
      {"measurement": "MIC", "setting": "Staphylococcus aureus [10]", "result": 2.34, "unit": "µg/mL"},
      {"measurement": "MIC", "setting": "Staphylococcus aureus [11]", "result": 2.34, "unit": "µg/mL"},
      {"measurement": "MIC", "setting": "Staphylococcus aureus [12]", "result": 2.34, "unit": "µg/mL"},
      {"measurement": "Activity", "setting": "Pseudomonas aeruginosa [13]", "result": "Dose-dependent-effect"},
      {"measurement": "Activity", "setting": "Pseudomonas aeruginosa [14]", "result": "Active"},
      {"measurement": "Ratio", "setting": "Pseudomonas aeruginosa [15]", "result": 4},
      {"measurement": "Ratio", "setting": "Staphylococcus aureus [16]", "result": 4},
      {"measurement": "Activity", "setting": "[17]", "result": "Non-toxic"},
      {"measurement": "Activity", "setting": "Acinetobacter baumannii [18]", "result": "Dose-dependent-effect; Less Efficacy Compared To Colistin, Reflected By Reduced Efficacy After Plasma Treatment"}
    ]}
  ]
}
